Active and inactive are the calls of the source. The rule behind the calls is not given here.
Key:
Mus musculus [1] = test: Anticonvulsant activity in ip dosed albino mouse assessed as protection against scPTZ-induced seizures after 30 mins; format: functional; conditions: 0.5 h
Mus musculus [2] = test: Anticonvulsant activity in ip dosed albino mouse assessed as protection against scPTZ-induced seizures after 4 hrs; format: functional
Mus musculus [3] = test: Anticonvulsant activity in ip dosed albino mouse assessed as protection against MES-induced seizures after 4 hrs; format: functional
Mus musculus [4] = test: Anticonvulsant activity in ip dosed albino mouse assessed as protection against MES-induced seizures after 30 mins; format: functional; conditions: 0.5 h
[5] = Neurotoxicity in ip dosed albino mouse assessed as inability to maintain equilibrium on rotarod after 30 mins by rotarod test; format: toxicity, organism-based; conditions: in vivo

| SMILES | ED50 (Mus musculus [1]) | ED50 (Mus musculus [2]) | ED50 (Mus musculus [3]) | ED50 (Mus musculus [4]) | TD50 at 0.5 h [5] |
| --- | --- | --- | --- | --- | --- |
| Cc1nn(-c2ccccc2)c(Cl)c1/C=N/NC(=O)Cc1cccc2ccccc12 | 300 mg/kg | inactive | 100 mg/kg | 100 mg/kg | – |
| Cc1nn(-c2ccccc2)c(Cl)c1/C=N/NC(=O)c1ccc(Cl)cc1 | 100 mg/kg | 100 mg/kg | 300 mg/kg | 100 mg/kg | 300 mg/kg |
| Cc1ccc(C(=O)N/N=C/c2c(C)nn(-c3ccccc3)c2Cl)cc1 | – | – | – | – | 100 mg/kg |
| CCCC(CCC)C(=O)[O-].[Na+] [VALPROATE SODIUM] | 300 mg/kg | inactive | – | – | – |
| Cc1nn(-c2ccccc2)c(Cl)c1/C=N/NC(=O)c1ccc(Cl)cc1Cl | 300 mg/kg | inactive | inactive | 300 mg/kg | – |
| Cc1nn(-c2ccccc2)c(Cl)c1/C=N/NC(=O)COc1ccccc1 | – | – | – | – | 300 mg/kg |
| Cc1nn(-c2ccccc2)c(Cl)c1/C=N/NC(=O)Cc1ccc(Cl)cc1 | 100 mg/kg | 300 mg/kg | 300 mg/kg | 100 mg/kg | 300 mg/kg |
| Cc1nn(-c2ccccc2)c(Cl)c1/C=N/NC(=O)c1ccc(F)cc1 | 100 mg/kg | 100 mg/kg | 100 mg/kg | 100 mg/kg | – |
| Cc1nn(-c2ccccc2)c(Cl)c1/C=N/NC(=O)c1ccccc1 | – | – | – | – | 100 mg/kg |
| O=C1NC(=O)C(c2ccccc2)(c2ccccc2)N1 [PHENYTOIN] | – | – | 30 mg/kg | 30 mg/kg | – |
| Cc1nn(-c2ccccc2)c(Cl)c1/C=N/NC(=O)c1ccc([N+](=O)[O-])cc1 | 300 mg/kg | inactive | 300 mg/kg | 100 mg/kg | – |
